Reference: ChEMBL document CHEMBL1144852, “Optimization of a dihydropyrrolopyrazole series of transforming growth factor-beta type I receptor kinase domain inhibitors: discovery of an orally bioavailable transforming growth factor-beta receptor type I inhibitor as antitumor agent” (J Med Chem, 2008)
Active and inactive are the calls of the source. The calls are words filed in the database; no cut-off is given here.

Legend:
[1] = molecular target: Serine/threonine-protein kinase Chk2 (Homo sapiens) (UniProt O96017); assay: Inhibition of Chk2 at 20 uM
[2] = Inhibition of CaMK2 at 20 uM
[3] = molecular target: Dual specificity mitogen-activated protein kinase kinase 7 (Homo sapiens) (UniProt O14733); assay: Inhibition of MKK7-beta at 20 uM
Dual specificity mitogen-activated protein kinase kinase 7 (Homo sapiens), sequence (O14733 whole entry): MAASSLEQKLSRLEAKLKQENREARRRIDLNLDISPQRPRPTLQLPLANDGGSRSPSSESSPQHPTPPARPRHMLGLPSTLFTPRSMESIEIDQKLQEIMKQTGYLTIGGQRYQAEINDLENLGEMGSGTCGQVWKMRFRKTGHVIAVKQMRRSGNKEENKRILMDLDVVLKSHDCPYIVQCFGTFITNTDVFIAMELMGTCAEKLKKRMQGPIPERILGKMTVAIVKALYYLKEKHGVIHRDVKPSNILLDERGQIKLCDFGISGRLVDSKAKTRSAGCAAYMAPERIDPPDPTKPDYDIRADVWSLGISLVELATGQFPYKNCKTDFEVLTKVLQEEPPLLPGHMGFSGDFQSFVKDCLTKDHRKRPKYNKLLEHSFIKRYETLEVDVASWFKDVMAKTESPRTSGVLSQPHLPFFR

[4] = molecular target: Dual specificity mitogen-activated protein kinase kinase 4 (Homo sapiens) (UniProt P45985); assay: Inhibition of MKK4 at 20 uM
Dual specificity mitogen-activated protein kinase kinase 4 (Homo sapiens), sequence (P45985 whole entry): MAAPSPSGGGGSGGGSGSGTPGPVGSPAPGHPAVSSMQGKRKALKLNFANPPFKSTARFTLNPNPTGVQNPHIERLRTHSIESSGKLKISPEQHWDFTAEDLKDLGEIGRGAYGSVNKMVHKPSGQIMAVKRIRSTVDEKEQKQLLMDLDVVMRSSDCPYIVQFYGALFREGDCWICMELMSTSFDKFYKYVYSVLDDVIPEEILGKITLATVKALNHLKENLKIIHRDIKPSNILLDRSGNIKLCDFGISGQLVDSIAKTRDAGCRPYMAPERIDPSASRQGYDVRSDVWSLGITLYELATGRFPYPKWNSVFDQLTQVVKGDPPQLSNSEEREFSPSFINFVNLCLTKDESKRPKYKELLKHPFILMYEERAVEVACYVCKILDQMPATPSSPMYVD

[5] = Inhibition of PKA at 20 uM
[6] = molecular target: RAF proto-oncogene serine/threonine-protein kinase (Homo sapiens) (UniProt P04049); assay: Inhibition of cRaf at 20 uM
[7] = molecular target: 5'-AMP-activated protein kinase subunit beta-1 (Homo sapiens) (UniProt Q9Y478); assay: Inhibition of AMPK at 20 uM
[8] = AUC in rat at 10 mg/kg, po after 24 hrs; format: ADME, organism-based; design: time < 24 hr, dose 10 mg/kg, route oral; settings: plasma
[9] = molecular target: RAC-alpha serine/threonine-protein kinase (Homo sapiens) (UniProt P31749); assay: Inhibition of PKBalpha at 20 uM
RAC-alpha serine/threonine-protein kinase (Homo sapiens), sequence (P31749 whole entry): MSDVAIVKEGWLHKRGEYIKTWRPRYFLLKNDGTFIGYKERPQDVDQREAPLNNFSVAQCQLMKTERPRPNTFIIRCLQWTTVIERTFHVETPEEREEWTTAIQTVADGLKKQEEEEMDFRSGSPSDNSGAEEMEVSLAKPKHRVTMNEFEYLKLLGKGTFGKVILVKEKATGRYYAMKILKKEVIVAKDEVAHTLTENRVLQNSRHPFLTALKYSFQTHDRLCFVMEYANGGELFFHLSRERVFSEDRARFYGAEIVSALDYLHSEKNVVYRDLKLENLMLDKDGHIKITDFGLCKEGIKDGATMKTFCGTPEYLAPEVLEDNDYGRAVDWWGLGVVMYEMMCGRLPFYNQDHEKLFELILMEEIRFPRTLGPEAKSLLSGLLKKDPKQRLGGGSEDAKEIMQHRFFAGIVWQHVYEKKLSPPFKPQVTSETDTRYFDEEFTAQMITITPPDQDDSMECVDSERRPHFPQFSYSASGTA

[10] = molecular target: Tyrosine-protein kinase Blk (Homo sapiens) (UniProt P51451); assay: Inhibition of Blk at 20 uM
Tyrosine-protein kinase Blk (Homo sapiens), sequence (P51451 2-505 limits assumed): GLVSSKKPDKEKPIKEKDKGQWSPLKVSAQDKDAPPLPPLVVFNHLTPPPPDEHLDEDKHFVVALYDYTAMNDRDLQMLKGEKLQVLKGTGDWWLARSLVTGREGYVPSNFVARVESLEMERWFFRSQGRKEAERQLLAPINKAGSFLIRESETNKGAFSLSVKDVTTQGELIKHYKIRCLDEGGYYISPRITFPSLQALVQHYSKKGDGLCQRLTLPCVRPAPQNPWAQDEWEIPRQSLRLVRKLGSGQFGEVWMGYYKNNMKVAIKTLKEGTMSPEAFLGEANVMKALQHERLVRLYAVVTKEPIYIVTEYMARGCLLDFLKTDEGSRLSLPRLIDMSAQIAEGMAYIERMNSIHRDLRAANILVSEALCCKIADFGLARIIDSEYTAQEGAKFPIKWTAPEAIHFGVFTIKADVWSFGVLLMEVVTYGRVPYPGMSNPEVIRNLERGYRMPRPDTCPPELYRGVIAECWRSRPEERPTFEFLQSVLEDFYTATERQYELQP

[11] = molecular target: Mitogen-activated protein kinase 1 (Homo sapiens) (UniProt P28482); assay: Inhibition of MAPK1 at 20 uM
Mus musculus [12] = assay: Inhibition of TGFbeta type receptor 1 in human Calu6 cells xenografted mouse at 75 mg/kg, po after 4 hrs by IVTI pharmacodynamic assay; format: functional; settings: Calu-6, 4 h
[13] = molecular target: Dual specificity mitogen-activated protein kinase kinase 6 (Homo sapiens) (UniProt P52564); assay: Inhibition of MKK6 at 20 uM
[14] = molecular target: Vascular endothelial growth factor receptor 2 (Homo sapiens) (UniProt P35968); assay: Inhibition of KDR at 20 uM
[15] = molecular target: Protein kinase C alpha type (Homo sapiens) (UniProt P17252); assay: Inhibition of PKCalpha at 20 uM
[16] = molecular target: Glycogen synthase kinase-3 beta (Homo sapiens) (UniProt P49841); assay: Inhibition of GSK3-beta at 20 uM
[17] = molecular target: MAP kinase-activated protein kinase 2 (Homo sapiens) (UniProt P49137); assay: Inhibition of MAPKAPK2 at 20 uM
[18] = molecular target: Mitogen-activated protein kinase 12 (Homo sapiens) (UniProt P53778); assay: Inhibition of Sapk3 at 20 uM
Mitogen-activated protein kinase 12 (Homo sapiens), sequence (P53778 whole entry): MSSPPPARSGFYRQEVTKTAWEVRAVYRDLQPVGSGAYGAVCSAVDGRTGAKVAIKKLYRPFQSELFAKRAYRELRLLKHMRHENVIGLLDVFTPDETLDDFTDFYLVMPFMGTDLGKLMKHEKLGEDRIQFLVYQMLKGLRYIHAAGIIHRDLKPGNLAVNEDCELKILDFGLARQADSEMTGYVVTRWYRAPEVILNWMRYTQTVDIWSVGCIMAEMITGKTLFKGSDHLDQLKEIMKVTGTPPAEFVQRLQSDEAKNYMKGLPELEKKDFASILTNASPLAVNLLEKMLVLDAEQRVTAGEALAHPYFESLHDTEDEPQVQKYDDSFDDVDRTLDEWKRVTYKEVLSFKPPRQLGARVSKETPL

[19] = molecular target: Dual specificity mitogen-activated protein kinase kinase 1 (Homo sapiens) (UniProt Q02750); assay: Inhibition of Mek1 at 20 uM
Liver microsomes = assay: Metabolic stability in human liver microsomes; format: ADME, Microsome
[20] = molecular target: Rho-associated protein kinase 2 (Homo sapiens) (UniProt O75116); assay: Inhibition of Rock2 at 20 uM
[21] = molecular target: Mitogen-activated protein kinase 10 (Homo sapiens) (UniProt P53779); assay: Inhibition of JNK3 at 20 uM
Mitogen-activated protein kinase 10 (Homo sapiens), sequence (P53779 whole entry): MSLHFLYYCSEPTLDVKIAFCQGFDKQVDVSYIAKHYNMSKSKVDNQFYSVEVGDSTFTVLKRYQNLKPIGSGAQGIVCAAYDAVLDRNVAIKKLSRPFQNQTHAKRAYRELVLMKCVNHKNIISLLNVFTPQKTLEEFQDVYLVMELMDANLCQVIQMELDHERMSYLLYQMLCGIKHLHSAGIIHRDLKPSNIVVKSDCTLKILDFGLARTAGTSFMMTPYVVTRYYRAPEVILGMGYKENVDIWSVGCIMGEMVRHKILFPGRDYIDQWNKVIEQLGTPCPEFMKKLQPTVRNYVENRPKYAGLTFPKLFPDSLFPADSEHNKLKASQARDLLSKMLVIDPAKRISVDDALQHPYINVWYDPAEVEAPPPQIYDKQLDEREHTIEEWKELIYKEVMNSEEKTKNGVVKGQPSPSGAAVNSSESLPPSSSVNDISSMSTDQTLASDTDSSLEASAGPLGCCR

[22] = molecular target: Protein kinase C beta type (Homo sapiens) (UniProt P05771); assay: Inhibition of PKC-beta-2 at 20 uM
Protein kinase C beta type (Homo sapiens), sequence (P05771 2-671 limits assumed): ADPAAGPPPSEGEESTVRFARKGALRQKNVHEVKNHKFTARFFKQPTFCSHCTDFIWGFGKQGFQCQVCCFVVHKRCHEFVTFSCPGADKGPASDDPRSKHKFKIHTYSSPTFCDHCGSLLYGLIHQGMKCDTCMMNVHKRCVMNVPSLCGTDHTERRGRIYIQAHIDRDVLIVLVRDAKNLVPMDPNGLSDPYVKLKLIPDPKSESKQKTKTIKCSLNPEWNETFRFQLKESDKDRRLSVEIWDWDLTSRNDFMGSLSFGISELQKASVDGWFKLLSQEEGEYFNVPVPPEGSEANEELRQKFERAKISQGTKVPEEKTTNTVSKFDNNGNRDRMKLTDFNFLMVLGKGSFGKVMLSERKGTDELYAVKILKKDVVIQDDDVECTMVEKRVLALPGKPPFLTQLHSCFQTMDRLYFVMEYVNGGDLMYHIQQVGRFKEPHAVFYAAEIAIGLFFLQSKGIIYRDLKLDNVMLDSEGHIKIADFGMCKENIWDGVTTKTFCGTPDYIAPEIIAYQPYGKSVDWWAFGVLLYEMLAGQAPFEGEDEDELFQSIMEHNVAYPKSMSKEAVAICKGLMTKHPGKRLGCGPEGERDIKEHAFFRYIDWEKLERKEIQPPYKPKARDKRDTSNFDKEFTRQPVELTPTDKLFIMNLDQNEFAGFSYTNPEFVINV

[23] = molecular target: Mitogen-activated protein kinase 13 (Homo sapiens) (UniProt O15264); assay: Inhibition of Sapk4 at 20 uM
Caco-2 = assay: Permeability from apical to basolateral side of human Caco-2 cell membrane; format: ADME, cell-based
[24] = molecular target: Serine/threonine-protein kinase Sgk1 (Homo sapiens) (UniProt O00141); assay: Inhibition of SGK at 20 uM
[25] = molecular target: Ribosomal protein S6 kinase alpha-5 (Homo sapiens) (UniProt O75582); assay: Inhibition of MSK1 at 20 uM
[26] = molecular target: Fibroblast growth factor receptor 3 (Homo sapiens) (UniProt P22607); assay: Inhibition of FGFR3 at 20 uM
[27] = Inhibition of CK2 at 20 uM
[28] = molecular target: Serine/threonine-protein kinase N2 (Homo sapiens) (UniProt Q16513); assay: Inhibition of PRK2 at 20 uM
NIH3T3 = assay: Antiproliferative activity against mouse NIH3T3 cells by [3H]thymidine assay; format: functional, cell-based
MX1 = assay: Effect on tumor growth delay in human MX1 cells xenografted in mouse administered 75 mg/kg, po twice a day after 7 days of inoculation for 20 days; format: functional, organism-based; design: dose 75 mg/kg
Mus musculus [29] = assay: Inhibition of TGFbeta type receptor 1 in human Calu6 cells xenografted mouse at 50 mg/kg, po by single point IVTI assay; format: functional, Calu-6; design: scale not given: the % may be the effect or the level left
[30] = molecular target: Ribosomal protein S6 kinase beta-1 (Homo sapiens) (UniProt P23443); assay: Inhibition of p70S6K at 20 uM
[31] = molecular target: Protein kinase C delta type (Homo sapiens) (UniProt Q05655); assay: Inhibition of PKCdelta at 20 uM
[32] = molecular target: Cyclin-dependent kinase 2 (Homo sapiens) (UniProt P24941); assay: Inhibition of CDK2 at 20 uM
[33] = molecular target: Tyrosine-protein kinase ZAP-70 (Homo sapiens) (UniProt P43403); assay: Inhibition of ZAP70 at 20 uM
[34] = molecular target: Serine/threonine-protein kinase Chk1 (Homo sapiens) (UniProt O14757); assay: Inhibition of Chk1 at 20 uM
[35] = Inhibition of JNK1-alpha at 20 uM
[36] = molecular target: Mitogen-activated protein kinase 11 (Homo sapiens) (UniProt Q15759); assay: Inhibition of Sapk2-beta at 20 uM
[37] = molecular target: MAP kinase-activated protein kinase 5 (Homo sapiens) (UniProt Q8IW41); assay: Inhibition of PRAK at 20 uM
MAP kinase-activated protein kinase 5 (Homo sapiens), sequence (Q8IW41 whole entry): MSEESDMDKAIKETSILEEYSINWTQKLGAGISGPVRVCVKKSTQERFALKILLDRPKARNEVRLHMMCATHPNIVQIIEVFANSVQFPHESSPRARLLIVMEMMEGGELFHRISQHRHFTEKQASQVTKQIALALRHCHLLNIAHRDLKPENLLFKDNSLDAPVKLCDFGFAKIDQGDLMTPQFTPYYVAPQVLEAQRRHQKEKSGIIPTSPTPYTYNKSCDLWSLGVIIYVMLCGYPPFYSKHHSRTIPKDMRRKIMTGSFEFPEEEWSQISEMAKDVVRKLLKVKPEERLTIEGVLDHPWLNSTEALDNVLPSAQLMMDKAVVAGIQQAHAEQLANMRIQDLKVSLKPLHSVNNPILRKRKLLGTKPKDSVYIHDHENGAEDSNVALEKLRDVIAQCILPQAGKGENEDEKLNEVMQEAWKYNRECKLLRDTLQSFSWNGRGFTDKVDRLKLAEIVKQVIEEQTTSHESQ

[38] = Oral bioavailability in rat at 10 mg/kg after 24 hrs; format: ADME, organism-based; settings: in vivo
[39] = molecular target: Cyclin-dependent kinase 1 (Homo sapiens) (UniProt P06493); assay: Inhibition of CDK1 at 20 uM
Cyclin-dependent kinase 1 (Homo sapiens), sequence (P06493 whole entry, looked up): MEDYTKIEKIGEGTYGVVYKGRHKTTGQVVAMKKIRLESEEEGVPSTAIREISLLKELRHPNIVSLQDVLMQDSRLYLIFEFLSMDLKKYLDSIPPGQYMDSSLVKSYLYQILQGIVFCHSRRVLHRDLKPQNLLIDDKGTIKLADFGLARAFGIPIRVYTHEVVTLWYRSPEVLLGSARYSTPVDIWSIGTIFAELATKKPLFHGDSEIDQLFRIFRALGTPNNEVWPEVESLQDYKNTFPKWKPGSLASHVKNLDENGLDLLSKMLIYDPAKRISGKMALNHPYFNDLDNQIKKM

[40] = Metabolic stability in rat microsomes; format: ADME, Microsome
[41] = molecular target: Tyrosine-protein kinase Lck (Homo sapiens) (UniProt P06239); assay: Inhibition of Lck at 20 uM
[42] = molecular target: Mitogen-activated protein kinase 14 (Homo sapiens) (UniProt Q16539); assay: Inhibition of Sapk2-alpha at 20 uM
Mitogen-activated protein kinase 14 (Homo sapiens), sequence (Q16539 whole entry): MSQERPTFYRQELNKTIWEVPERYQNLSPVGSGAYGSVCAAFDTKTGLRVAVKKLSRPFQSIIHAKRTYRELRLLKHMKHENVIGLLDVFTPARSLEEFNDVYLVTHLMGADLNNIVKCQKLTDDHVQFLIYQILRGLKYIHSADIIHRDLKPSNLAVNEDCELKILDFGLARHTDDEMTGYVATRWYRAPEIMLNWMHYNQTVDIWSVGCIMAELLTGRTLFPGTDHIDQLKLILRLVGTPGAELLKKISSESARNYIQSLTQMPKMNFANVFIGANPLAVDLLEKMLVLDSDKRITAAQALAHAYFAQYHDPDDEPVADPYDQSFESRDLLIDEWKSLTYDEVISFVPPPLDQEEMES

Mus musculus [43] = assay: Inhibition of TGFbeta type receptor 1 in orally dosed human Calu6 cells xenografted mouse by IVTI […] assay; format: functional, organism-based; settings: Calu-6
[44] = molecular target: Tyrosine-protein kinase Fyn (Homo sapiens) (UniProt P06241); assay: Inhibition of Fyn at 20 uM
[45] = molecular target: Mitogen-activated protein kinase 9 (Homo sapiens) (UniProt P45984); assay: Inhibition of JNK2-alpha-2 at 20 uM
[46] = molecular target: Proto-oncogene tyrosine-protein kinase Src (Homo sapiens) (UniProt P12931); assay: Inhibition of cSRC at 20 uM
Proto-oncogene tyrosine-protein kinase Src (Homo sapiens), sequence (P12931 2-536 limits assumed): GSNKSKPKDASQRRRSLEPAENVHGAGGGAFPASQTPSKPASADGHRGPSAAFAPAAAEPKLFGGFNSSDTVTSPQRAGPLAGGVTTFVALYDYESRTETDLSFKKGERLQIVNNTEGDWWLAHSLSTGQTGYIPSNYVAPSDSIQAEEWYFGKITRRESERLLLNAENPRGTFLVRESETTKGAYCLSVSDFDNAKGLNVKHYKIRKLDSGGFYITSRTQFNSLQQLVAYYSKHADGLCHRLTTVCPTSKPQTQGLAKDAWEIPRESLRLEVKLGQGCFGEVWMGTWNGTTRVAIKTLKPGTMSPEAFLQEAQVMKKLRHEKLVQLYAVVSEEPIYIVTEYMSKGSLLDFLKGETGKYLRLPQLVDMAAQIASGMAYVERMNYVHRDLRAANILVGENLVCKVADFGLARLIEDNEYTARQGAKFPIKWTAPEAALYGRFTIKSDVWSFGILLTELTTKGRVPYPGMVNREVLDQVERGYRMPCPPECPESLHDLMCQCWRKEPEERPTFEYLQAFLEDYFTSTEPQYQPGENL

Q: For `c1ccc(-c2nn3c(c2-c2ccnc4cc(OCCN5CCOCC5)ccc24)CCC3)nc1`, which inhibition [1] is on record?
A: < 50%

Q: What about the inhibition [2] of the same molecule?
A: < 50%

Q: And the inhibition [3]?
A: < 50%

Q: And the inhibition [4]?
A: < 50%

Q: What about the inhibition [5] of the same molecule?
A: < 50%

Q: And the inhibition [6]?
A: < 50%

Q: What about the inhibition [7] of the same molecule?
A: < 50%

Q: What about the AUC at 24 h [8] of the same molecule?
A: 1000 ng·h/mL

Q: And the inhibition [9]?
A: < 50%

Q: What about the inhibition [10] of the same molecule?
A: < 50%

Q: What about the inhibition [11] of the same molecule?
A: 31%

Q: What about the inhibition in vivo at 75 mg/kg (Mus musculus [12]) of the same molecule?
A: 48%

Q: What about the inhibition [13] of the same molecule?
A: 80%

Q: What about the inhibition [14] of the same molecule?
A: < 50%

Q: And the inhibition [15]?
A: < 50%

Q: What about the inhibition [16] of the same molecule?
A: < 50%

Q: What about the inhibition [17] of the same molecule?
A: < 50%

Q: What about the inhibition [18] of the same molecule?
A: < 50%

Q: And the inhibition [19]?
A: < 50%

Q: And the Stability (Liver microsomes)?
A: 27%

Q: What about the inhibition [20] of the same molecule?
A: < 50%

Q: And the inhibition [21]?
A: 68%

Q: And the inhibition [22]?
A: < 50%

Q: And the inhibition [23]?
A: < 50%

Q: What about the permeability (Caco-2) of the same molecule?
A: 28%

Q: What about the inhibition [24] of the same molecule?
A: < 50%

Q: What about the inhibition [25] of the same molecule?
A: < 50%

Q: What about the inhibition [26] of the same molecule?
A: < 50%

Q: What about the inhibition [27] of the same molecule?
A: < 50%

Q: What about the inhibition [28] of the same molecule?
A: < 50%

Q: What about the IC50 (NIH3T3) of the same molecule?
A: 210 nM

Q: What about the Activity (MX1) of the same molecule?
A: Active

Q: What about the Activity (Mus musculus [29]) of the same molecule?
A: 56%

Q: And the inhibition [30]?
A: < 50%

Q: What about the inhibition [31] of the same molecule?
A: < 50%

Q: What about the inhibition [32] of the same molecule?
A: < 50%

Q: What about the inhibition [33] of the same molecule?
A: < 50%

Q: And the inhibition [34]?
A: < 50%

Q: And the inhibition [35]?
A: < 50%

Q: What about the inhibition [36] of the same molecule?
A: 47%

Q: And the inhibition [37]?
A: < 50%

Q: And the bioavailability [38]?
A: 21%

Q: What about the inhibition [39] of the same molecule?
A: < 50%

Q: What about the Stability [40] of the same molecule?
A: 58%

Q: And the inhibition [41]?
A: 69%

Q: What about the inhibition [42] of the same molecule?
A: 89%

Q: And the EC50 (Mus musculus [43])?
A: 236 nM

Q: What about the inhibition [44] of the same molecule?
A: 58%

Q: What about the inhibition [45] of the same molecule?
A: < 50%

Q: And the inhibition [46]?
A: < 50%
